Laboratory results from patent US10550117B2, “2-azabicyclo[3.1.0]hexan-3-one derivatives and methods of use” (Genentech, Inc., priority 2016, dated 2020).
Each block holds one compound with its values, some of them ahead of it.

Columns and labels:
[1] = biological target: nuclear factor-kappa B (NF-kB)-inducing kinase (NIK) (Homo sapiens (Human), UniProt Q99558); test: NIK enzyme inhibition assay (Transcreener ADP fluorescence polarization); assay type: biochemical; conditions: for NIK enzyme inhibition, potency in words relative to the other stereoisomers: stereoisomers separated by chiral SFC, qualitative; for Ki: purified NIK 0.5 nM, 10 μM ATP, Morrison equation, read-out: NIK ADP-FP Ki
Sequence of nuclear factor-kappa B (NF-kB)-inducing kinase (NIK) (Q99558 whole entry): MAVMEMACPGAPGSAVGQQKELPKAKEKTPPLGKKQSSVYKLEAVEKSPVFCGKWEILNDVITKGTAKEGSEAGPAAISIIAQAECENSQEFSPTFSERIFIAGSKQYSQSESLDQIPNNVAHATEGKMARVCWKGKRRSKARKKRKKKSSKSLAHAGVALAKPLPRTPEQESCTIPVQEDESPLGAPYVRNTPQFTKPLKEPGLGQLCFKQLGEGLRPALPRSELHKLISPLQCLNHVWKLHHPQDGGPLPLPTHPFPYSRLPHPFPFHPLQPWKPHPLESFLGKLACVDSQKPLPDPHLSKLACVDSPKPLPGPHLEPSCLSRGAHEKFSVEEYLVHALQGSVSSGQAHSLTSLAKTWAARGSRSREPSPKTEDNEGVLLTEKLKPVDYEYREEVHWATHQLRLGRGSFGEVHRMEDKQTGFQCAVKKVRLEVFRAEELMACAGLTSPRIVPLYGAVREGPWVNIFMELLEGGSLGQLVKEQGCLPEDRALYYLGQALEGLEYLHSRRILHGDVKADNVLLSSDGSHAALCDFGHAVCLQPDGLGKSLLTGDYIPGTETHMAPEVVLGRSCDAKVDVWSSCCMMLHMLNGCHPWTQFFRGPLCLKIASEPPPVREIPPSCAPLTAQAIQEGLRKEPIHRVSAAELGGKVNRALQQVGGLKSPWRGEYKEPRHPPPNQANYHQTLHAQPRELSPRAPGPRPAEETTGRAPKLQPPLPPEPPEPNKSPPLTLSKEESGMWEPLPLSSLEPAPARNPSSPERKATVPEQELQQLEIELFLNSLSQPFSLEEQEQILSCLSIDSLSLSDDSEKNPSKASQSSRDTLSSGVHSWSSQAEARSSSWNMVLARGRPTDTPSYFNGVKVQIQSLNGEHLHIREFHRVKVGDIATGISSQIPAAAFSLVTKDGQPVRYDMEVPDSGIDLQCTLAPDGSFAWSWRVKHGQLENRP
Procedure: The ability of the nuclear factor-kappa B (NF-kB)-inducing kinase (NIK) to catalyze the hydrolysis of adenosine-5′-triphosphate (ATP) was monitored using the Transcreener ADP (adenosine-5′-diphosphate) assay (BellBrook Labs). […] Reactions were quenched by the addition of 20 mM 2,2′,2″,2′″-(ethane-1,2-diyldinitrilo)tetraacetic acid and 0.01% Brij 35. The tracer bound to the antibody was displaced by the ADP generated during the NIK reaction, which causes a decrease in fluorescence polarization that was measured by laser excitation at 633 nm with a Fluorescence Correlation Spectroscopy Plus reader (Evotec AG). Equilibrium dissociation constant (Ki) values for NIK inhibitors are calculated from plots of activity vs. inhibitor concentration using Morrison's quadratic equation that accounts for the potential of tight binding, and by also applying the conversion factor that accounted for competitive inhibition and the concentration of substrate used in the assay relative to its Michaelis constant (Km).

[2] = Liver microsome stability; assay type: in vitro ADME; conditions: for HLM CL (human liver microsome clearance): human liver microsomes; for stability in human liver microsomes versus the corresponding pyrrolidinone comparator compound: qualitative comparison
Procedure: Metabolic stability assays in liver microsomes are conducted with pooled female CD-1 mouse, male Sprague-Dawley rat, male beagle dog, male cynomolgus monkey, and mixed male and female human liver microsomal incubations. The general assay conditions are as follows. Incubation mixtures consisted of liver microsomes (0.5 mg of microsomal protein/ml) and the test compound (1.0 μM) with or without NADPH (1.0 mM) in the potassium phosphate buffer (100 mM; pH 7.4) with a final incubation volume of 0.25 ml. Reactions are initiated by the addition of NADPH or buffer and shaken in a water bath open to the air at 37° C. At times 0, 20, 40, and 60 min, aliquots (50 μl) are removed and added to termination mixtures (100 μl) containing acetonitrile and an internal standard. The samples are then centrifuged for 10 min at 2000 g. The supernatant (90 μl) is removed, combined with 180 μl of water, and analyzed by LC-MS/MS.
Metabolic stability of the test compounds were evaluated in human liver microsomes following known protocols described in Halladay, et al. Drug Metabol. Lett. 2007, 1:67-72.

[3] = Hepatocyte stability; assay type: in vitro ADME; conditions: human hepatocytes
Procedure: General. Metabolic stability assays in hepatocytes are conducted using cryopreserved pooled female CD-1 mouse, male Sprague-Dawley rat, male beagle dog, male cynomolgus monkey, and mixed male and female human hepatocytes (CellzDirect). Vials of hepatocytes are thawed rapidly in a water bath set at 37° C. and then are diluted with Dulbecco's modified Eagle's medium (DMEM), pH 7.4. Cells are isolated by centrifugation, pooled, and resuspended in DMEM at 1.0 million viable cells/ml. Membrane integrity of the cells is assessed by trypan blue exclusion. The test compound is dissolved in dimethyl sulfoxide at a final concentration of 10 mM. This test compound stock is diluted further to 2 μM in DMEM (125 μl) before the addition of an equal volume of the 10^6 cells/ml cell suspension. The test compound (final incubation concentration of 1.0 μM with 0.1% dimethyl sulfoxide) and cells (final concentration of 0.5×10^6 cells/ml) are incubated at 37° C. in a 95% air/5% CO2 atmosphere for 3 h. Aliquots (50 μl) are removed at 0, 1, 2, and 3 hours and added to termination mixtures (100 μl) containing acetonitrile and an internal standard. The samples are then centrifuged for 10 min at 2000 g. The supernatant (90 μl) is removed, combined with 180 μl of water, and analyzed by LC-MS/MS.
Metabolic stability of the test compounds were evaluated also in human hepatocytes, following protocols described in Hallifax, et al. Drug Metabol. Disposition, 2005, 33:1852-1858.

[4] = tested on: p52 (NF-kB2) nuclear translocation in HeLa cells; test: p52 HeLa nuclear translocation assay (anti-lymphotoxin beta receptor antibody stimulated); assay type: cell-based; conditions: Homo sapiens, 100 ng/mL anti-lymphotoxin beta receptor antibody
Procedure: (§1) (3) A third set of cell assays are used to define the selectivity of NIK inhibitors toward inhibition of classical vs. non-classical NF-kB signaling and rely on quantification of the nuclear translocation of p52 (NF-kB2) and REL-A (p65) using high content cellular imaging. For the p52 (non-classical NF-kB signaling) nuclear translocation assay, HeLa cells are treated with different concentrations of compounds (0.2% DMSO final) in medium containing 10% fetal bovine serum and then stimulated with 100 ng/mL of an anti-lymphotoxin beta receptor antibody (R&D Systems) for 5 hours. In the REL-A nuclear translocation assay, HeLa cells are incubated with compounds (0.2% DMSO final) for 4.5 hours in medium containing 10% fetal bovine serum before stimulating them with 10 ng/mL tumor necrosis factor (TNF)-α (R&D Systems) for 30 minutes. Cells are fixed with 4% paraformaldehyde, permeabilized by adding 0.1% Triton X-100 in phosphate buffered saline, and then are incubated with either 2 μg/mL anti-p52 antibody (Millipore) or 400 ng/mL anti-REL-A (p65) antibody (Santa Cruz Biotechnology). Finally, the cells are incubated with an Alexa488-labeled secondary antibody (Invitrogen) and DRAQ5 DNA stain (Biostatus). Imaging is carried out using an Opera reader (Perkin Elmer) and data are analyzed with the aid of Acapella software (Perkin Elmer). The p52 or REL-A translocation into the nucleus is quantified by the ratio of the nuclear to cytoplasmic signal intensity. […] The test compounds have the corresponding inhibitory values (IC50) for NIK REL-A (p65) and p52 Translocation Assays as set forth in Table B2.

[5] = tested on: REL-A (p65) nuclear translocation in HeLa cells; test: REL-A HeLa nuclear translocation assay (TNF-α stimulated, high content imaging); assay type: cell-based; conditions: Homo sapiens, 10 ng/mL TNF-α
Procedure: as §1

SMILES: CN1C(=O)C(O)(C#Cc2cccc(-c3nc(C(N)=O)c(N)s3)c2)C2CC21 (single isomer, unassigned) [5-amino-2-(3-((4-hydroxy-2-methyl-3-oxo-2-azabicyclo[3.1.0]hexan-4-yl)ethynyl)phenyl)thiazole-4-carboxamide]
NIK enzyme inhibition, potency in words relative to the other stereoisomers [1]: less potent NIK enzyme inhibitor than Compound 6

NIK enzyme inhibition, potency in words relative to the other stereoisomers [1]: no measurable inhibition
SMILES: COc1ccn2c(C(N)=O)nc(-c3cccc(C#C[C@]4(O)C(=O)N(C)[C@H]5C[C@H]54)c3)c2c1 [1-(3-(((1S,4S,5R)-4-hydroxy-2-methyl-3-oxo-2-azabicyclo[3.1.0]hexan-4-yl)ethynyl)phenyl)-7-methoxyimidazo[1,5-a]pyridine-3-carboxamide]

SMILES: CN1C(=O)[C@@](O)(C#Cc2cccc(-c3nc(C(N)=O)c4ccccn34)c2)[C@@H]2C[C@@H]21 [3-(3-(((1S,4S,5R)-4-hydroxy-2-methyl-3-oxo-2-azabicyclo[3.1.0]hexan-4-yl)ethynyl)phenyl)imidazo[1,5-a]pyridine-1-carboxamide]
NIK enzyme inhibition, potency in words relative to the other stereoisomers [1]: third most potent NIK enzyme inhibitor among the 4 stereoisomers

HLM CL (human liver microsome clearance) [2]: 12 mL/min/kg
stability in human liver microsomes versus the corresponding pyrrolidinone comparator compound [2]: better stability
Ki [1]: 0.05 nM
SMILES: COc1ccn2c(C(N)=O)nc(-c3cccc(C#C[C@@]4(O)C(=O)N(C)[C@@H]5C[C@@H]54)c3)c2c1 [Compound 4, 1-(3-(((1R,4R,5S)-4-hydroxy-2-methyl-3-oxo-2-azabicyclo[3.1.0]hexan-4-yl)ethynyl)phenyl)-7-methoxyimidazo[1,5-a]pyridine-3-carboxamide]
NIK enzyme inhibition, potency in words relative to the other stereoisomers [1]: most potent NIK enzyme inhibitor among the 4 stereoisomers

NIK enzyme inhibition, potency in words relative to the other stereoisomers [1]: no measurable inhibition
SMILES: CN1C(=O)[C@@](O)(C#Cc2cccc(-c3nc(C(N)=O)n4ccccc34)c2)[C@@H]2C[C@@H]21 [1-(3-(((1 S,4S,5R)-4-hydroxy-2-methyl-3-oxo-2-azabicyclo[3.1.0]hexan-4-yl)ethynyl)phenyl)imidazo[1,5-a]pyridine-3-carboxamide]

NIK enzyme inhibition, potency in words relative to the other stereoisomers [1]: no measurable inhibition
SMILES: CN1C(=O)[C@@](O)(C#Cc2cccc(-n3nc(C(N)=O)c4cccnc43)c2)[C@@H]2C[C@@H]21 [1-(3-(((1 S,4S,5R)-4-hydroxy-2-methyl-3-oxo-2-azabicyclo[3.1.0]hexan-4-yl)ethynyl)phenyl)-1H-pyrazolo[3,4-b]pyridine-3-carboxamide]

SMILES: CN1CC[C@@](O)(C#Cc2cccc(-c3nc(C(N)=O)c(N)s3)c2)C1=O [Compound C-6, reference compound]
HLM CL (human liver microsome clearance) [2]: 5.1 mL/min/kg
Hep CL (human hepatocyte clearance) [3]: 1.1 mL/min/kg
IC50 [4]: 79.1 nM
IC50 [5]: > 5000 nM
Ki [1]: 0.13 nM

SMILES: CN1C(=O)[C@](O)(C#Cc2cccc(-c3nc(C(N)=O)c4ccccn34)c2)[C@@H]2C[C@@H]21 [3-(3-(((1 S,4R,5R)-4-hydroxy-2-methyl-3-oxo-2-azabicyclo[3.1.0]hexan-4-yl)ethynyl)phenyl)imidazo[1,5-a]pyridine-1-carboxamide]
NIK enzyme inhibition, potency in words relative to the other stereoisomers [1]: second most potent NIK enzyme inhibitor among the 4 stereoisomers

NIK enzyme inhibition, potency in words relative to the other stereoisomers [1]: no measurable inhibition
SMILES: CN1C(=O)[C@@](O)(C#Cc2cccc(-n3nc(C(N)=O)c4cccnc43)c2)[C@H]2C[C@H]21 [1-(3-(((1R,4S,5S)-4-hydroxy-2-methyl-3-oxo-2-azabicyclo[3.1.0]hexan-4-yl)ethynyl)phenyl)-1H-pyrazolo[3,4-b]pyridine-3-carboxamide]

SMILES: CN1CC[C@@](O)(C#Cc2cccc(-c3nc(C(N)=O)c4ccccn34)c2)C1=O [Compound C-5]
IC50 [4]: 240 nM
IC50 [5]: > 20000 nM

HLM CL (human liver microsome clearance) [2]: 1.6 mL/min/kg
stability in human liver microsomes versus the corresponding pyrrolidinone comparator compound [2]: better stability
Hep CL (human hepatocyte clearance) [3]: 2.7 mL/min/kg
Ki [1]: 0.05 nM
SMILES: CN1C(=O)[C@](O)(C#Cc2cccc(-c3nc(C(N)=O)c(N)s3)c2)[C@H]2C[C@H]21 [Compound 6, 5-amino-2-(3-(((1R,4R,5S)-4-hydroxy-2-methyl-3-oxo-2-azabicyclo[3.1.0]hexan-4-yl)ethynyl)phenyl)thiazole-4-carboxamide]
NIK enzyme inhibition, potency in words relative to the other stereoisomers [1]: most potent NIK enzyme inhibitor among the 4 stereoisomers

SMILES: COc1ccn2c(C(N)=O)nc(-c3cccc(C#C[C@]4(O)C(=O)N(C)[C@@H]5C[C@@H]54)c3)c2c1 [1-(3-(((1R,4S,5S)-4-hydroxy-2-methyl-3-oxo-2-azabicyclo[3.1.0]hexan-4-yl)ethynyl)phenyl)-7-methoxyimidazo[1,5-a]pyridine-3-carboxamide]
NIK enzyme inhibition, potency in words relative to the other stereoisomers [1]: third most potent NIK enzyme inhibitor among the 4 stereoisomers

SMILES: CN1C(=O)[C@@](O)(C#Cc2cccc(-c3nc(C(N)=O)n4ccccc34)c2)[C@H]2C[C@H]21 [1-(3-(((1R,4S,5S)-4-hydroxy-2-methyl-3-oxo-2-azabicyclo[3.1.0]hexan-4-yl)ethynyl)phenyl)imidazo[1,5-a]pyridine-3-carboxamide]
NIK enzyme inhibition, potency in words relative to the other stereoisomers [1]: third most potent NIK enzyme inhibitor among the 4 stereoisomers

SMILES: CN1C(=O)[C@](O)(C#Cc2cccc(-c3nc(C(N)=O)n4ccccc34)c2)[C@@H]2C[C@@H]21 [1-(3-(((1 S,4R,5R)-4-hydroxy-2-methyl-3-oxo-2-azabicyclo[3.1.0]hexan-4-yl)ethynyl)phenyl)imidazo[1,5-a]pyridine-3-carboxamide]
NIK enzyme inhibition, potency in words relative to the other stereoisomers [1]: second most potent NIK enzyme inhibitor among the 4 stereoisomers

SMILES: CN1CC[C@@](O)(C#Cc2cccc(-n3nc(C(N)=O)c4cccnc43)c2)C1=O [Compound C-1]
IC50 [4]: 79.5 nM
IC50 [5]: > 20000 nM

SMILES: COc1ccn2c(C(N)=O)nc(-c3cccc(C#C[C@@]4(O)C(=O)N(C)[C@H]5C[C@H]54)c3)c2c1 [1-(3-(((1 S,4R,5R)-4-hydroxy-2-methyl-3-oxo-2-azabicyclo[3.1.0]hexan-4-yl)ethynyl)phenyl)-7-methoxyimidazo[1,5-a]pyridine-3-carboxamide]
NIK enzyme inhibition, potency in words relative to the other stereoisomers [1]: second most potent NIK enzyme inhibitor among the 4 stereoisomers
